Assay results as given in patent publication US8563257B2, “Sensitive and rapid methods of using chimeric receptors to identify autoimmune disease and assess disease severity” (Diagnostic Hybrids, Inc., priority 2000, dated 2013).
Values joined by “and” are separate entries in the source; they are usually repeats but may differ in a detail not shown here. Equal values may be shown once. “Also recorded” adds a separate entry of the source.

What was measured:
CHO-RMc4luc cells [1] = test: Alternate glucocorticoids vs. dexamethasone in the non-starved CHO-RMc4 assay; assay type: cell-based, Chinese hamster; conditions: for signal intensity (RLU) compared to 40 μM dexamethasone: FIG. 17
Description: The data was collected in accordance with the protocol outlined in Example 17. The data was calculated as the difference (Δ) in RLU values or SRR % values for each glucocorticoid (GC) concentration by subtracting the RLU value or SRR % value for the Normal control at that concentration from the RLU value or SRR % value for the Positive control at that concentration, respectively.
Four GCs were examined in this study: i) Prednisone (Sigma); ii) Hydrocortisone (Sigma); iii) Fluticasone Propionate (Sigma); and iv) Cortisone (Sigma). A stock concentration (100 mM) of each GC was made in DMSO. 1:10 (10 mM) and 1:100 (1 mM) dilutions, in DMSO, were then made from the 100 mM stock. All DMSO/GC stocks were clear with no visible precipitate.
Growth Media containing different concentrations of each GC were made as follows: i) 100 μM GC Medium: 5 μL of 100 mM GC Stock+5 mL SR097 (w/o Dex); ii) 50 μM GC Medium: 2.5 μL of 100 mM GC Stock+5 mL SR097 (w/o Dex); iii) 10 μM GC Medium: 5 μL of 10 mM GC Stock+5 mL SR097 (w/o Dex); iii) 1 μM GC Medium: 5 μL of 1 mM GC Stock+5 mL SR097 (w/o Dex); and iv) 0.1 μM GC Medium: 0.5 μL of 1 mM GC Stock+5 mL SR097 (w/o Dex). […] Additional controls included Growth Medium containing 1 μl/ml dimethylsulfoxide (DMSO) as a solvent control and Growth Medium without any glucocorticoids.
Each assay was performed by using two (2) microwell plates for each glucocorticoid tested. The sample layouts for each plate are identified below: […]

CHO-RMc4luc cells [2] = test: Effect of dexamethasone on starved CHO-RMc4luc cells (luciferase); assay type: cell-based, Chinese hamster; conditions: for % of S/B, Patient #18 Serum: 0 uM = 100; for RLU, Patient #18 Serum, Average / S/B, Patient #18 Serum / RLU, Patient #18 Serum, Test 1-3 / RLU, Reference Serum, Avg / RLU, Reference Serum, Test 1-3: starved cells; for RLU, Patient #18 Serum, Test 1-3 / RLU, Reference Serum, Test 1-3: listed as DEX
Description: CHO-Rluc (041307A) and CHO-RMc4luc (062707, P8, 3e6/ml) cells were each brought up in 5 ml CHO growth media.
The cells were then rinsed with reaction buffer and serum (diluted 1:11) was added to 100 μl of reaction buffer already in the well. Serums used were: i) reference 121506R; ii) PC 121506P; and iii) patient #18 TSI serum.
After 4 hours of induction the plates were lysed with 75 ul of Bright Glo®, lysed for 5 minutes, and then read on a Veritas luminometer.

[3] = glucocorticoid 0.1 μM in Growth Medium
[4] = glucocorticoid 1 μM in Growth Medium
[5] = glucocorticoid 10 μM in Growth Medium
[6] = glucocorticoid 50 μM in Growth Medium
[7] = glucocorticoid 100 μM in Growth Medium
[8] = 40 μM in Growth Medium (control)

C[C@]12C=CC(=O)C=C1CC[C@@H]1[C@@H]2C(=O)C[C@@]2(C)[C@H]1CC[C@]2(O)C(=O)CO [Prednisone]
signal intensity (RLU) compared to 40 μM dexamethasone (CHO-RMc4luc cells [1]): equal signal intensities
Δ (positive - normal) RLU (CHO-RMc4luc cells [1]; [3]): 8717 RLU
Δ (positive - normal) SRR % s (CHO-RMc4luc cells [1]; [3]): 150%
Δ (positive - normal) RLU (CHO-RMc4luc cells [1]; [4]): 8219 RLU
Δ (positive - normal) SRR % s (CHO-RMc4luc cells [1]; [4]): 133%
Δ (positive - normal) RLU (CHO-RMc4luc cells [1]; [5]): 8429 RLU
Δ (positive - normal) SRR % s (CHO-RMc4luc cells [1]; [5]): 142%
Δ (positive - normal) RLU (CHO-RMc4luc cells [1]; [6]): 8107 RLU
Δ (positive - normal) SRR % s (CHO-RMc4luc cells [1]; [6]): 165%

C[C@]12CCC(=O)C=C1CC[C@@H]1[C@@H]2[C@@H](O)C[C@@]2(C)[C@H]1CC[C@]2(O)C(=O)CO [Hydrocortisone]
signal intensity (RLU) compared to 40 μM dexamethasone (CHO-RMc4luc cells [1]): equivalent to dexamethasone; also recorded: equal signal intensities
Δ (positive - normal) RLU (CHO-RMc4luc cells [1]; [3]): 9889 RLU
Δ (positive - normal) SRR % s (CHO-RMc4luc cells [1]; [3]): 158%
Δ (positive - normal) RLU (CHO-RMc4luc cells [1]; [4]): 9149 RLU
Δ (positive - normal) SRR % s (CHO-RMc4luc cells [1]; [4]): 155%
Δ (positive - normal) RLU (CHO-RMc4luc cells [1]; [5]): 9757 RLU
Δ (positive - normal) SRR % s (CHO-RMc4luc cells [1]; [5]): 153%
Δ (positive - normal) RLU (CHO-RMc4luc cells [1]; [6]): 8950 RLU
Δ (positive - normal) SRR % s (CHO-RMc4luc cells [1]; [6]): 178%
Δ (positive - normal) RLU (CHO-RMc4luc cells [1]; [7]): 8348 RLU
Δ (positive - normal) SRR % s (CHO-RMc4luc cells [1]; [7]): 180%

CCC(=O)O[C@]1(C(=O)SCF)[C@H](C)C[C@H]2[C@@H]3C[C@H](F)C4=CC(=O)C=C[C@]4(C)[C@@]3(F)[C@@H](O)C[C@@]21C [Fluticasone Proprionate, Fluticasone Propionate]
signal intensity (RLU) compared to 40 μM dexamethasone (CHO-RMc4luc cells [1]): equal signal intensities
Δ (positive - normal) RLU (CHO-RMc4luc cells [1]; [3]): 9768 RLU
Δ (positive - normal) SRR % s (CHO-RMc4luc cells [1]; [3]): 161%
Δ (positive - normal) RLU (CHO-RMc4luc cells [1]; [4]): 8806 RLU
Δ (positive - normal) SRR % s (CHO-RMc4luc cells [1]; [4]): 148%
Δ (positive - normal) RLU (CHO-RMc4luc cells [1]; [5]): 8774 RLU
Δ (positive - normal) SRR % s (CHO-RMc4luc cells [1]; [5]): 168%
Δ (positive - normal) RLU (CHO-RMc4luc cells [1]; [6]): 6996 RLU
Δ (positive - normal) SRR % s (CHO-RMc4luc cells [1]; [6]): 137%
Δ (positive - normal) RLU (CHO-RMc4luc cells [1]; [7]): 6366 RLU
Δ (positive - normal) SRR % s (CHO-RMc4luc cells [1]; [7]): 155%

C[C@@H]1C[C@H]2[C@@H]3CCC4=CC(=O)C=C[C@]4(C)[C@@]3(F)[C@@H](O)C[C@]2(C)[C@@]1(O)C(=O)CO [Dexamethasone, dexamethasone]
% of S/B, Patient #18 Serum (CHO-RMc4luc cells [2]; DEX 12.5 uM): 180%
RLU, Patient #18 Serum, Average (CHO-RMc4luc cells [2]; DEX 12.5 uM): 5165 RLU
S/B, Patient #18 Serum (CHO-RMc4luc cells [2]; DEX 12.5 uM): 39.8
RLU, Patient #18 Serum, Test 1-3 (CHO-RMc4luc cells [2]; DEX 12.5 uM): 4710 RLU and 5456 RLU and 5330 RLU
% of S/B, Patient #18 Serum (CHO-RMc4luc cells [2]; DEX 25 uM): 183%
RLU, Patient #18 Serum, Average (CHO-RMc4luc cells [2]; DEX 25 uM): 5194 RLU
RLU, Reference Serum, Avg (CHO-RMc4luc cells [2]; DEX 25 uM): 127 RLU
S/B, Patient #18 Serum (CHO-RMc4luc cells [2]; DEX 25 uM): 40.6
RLU, Patient #18 Serum, Test 1-3 (CHO-RMc4luc cells [2]; DEX 25 uM): 5172 RLU and 5151 RLU and 5260 RLU
RLU, Reference Serum, Test 1-3 (CHO-RMc4luc cells [2]; DEX 25 uM): 129 RLU and 132 RLU
% of S/B, Patient #18 Serum (CHO-RMc4luc cells [2]; DEX 40 uM): 182%
RLU, Patient #18 Serum, Average (CHO-RMc4luc cells [2]; DEX 40 uM): 5092 RLU
RLU, Reference Serum, Avg (CHO-RMc4luc cells [2]; DEX 40 uM): 126 RLU
S/B, Patient #18 Serum (CHO-RMc4luc cells [2]; DEX 40 uM): 40.4
RLU, Patient #18 Serum, Test 1-3 (CHO-RMc4luc cells [2]; DEX 40 uM): 5039 RLU and 5198 RLU and 5038 RLU
RLU, Reference Serum, Test 1-3 (CHO-RMc4luc cells [2]; DEX 40 uM): 128 RLU
% of S/B, Patient #18 Serum (CHO-RMc4luc cells [2]; DEX 50 uM): 181%
RLU, Patient #18 Serum, Average (CHO-RMc4luc cells [2]; DEX 50 uM): 5023 RLU
RLU, Reference Serum, Avg (CHO-RMc4luc cells [2]; DEX 50 uM): 125 RLU
S/B, Patient #18 Serum (CHO-RMc4luc cells [2]; DEX 50 uM): 40.1
RLU, Patient #18 Serum, Test 1-3 (CHO-RMc4luc cells [2]; DEX 50 uM): 4861 RLU and 5298 RLU and 4909 RLU
RLU, Reference Serum, Test 1-3 (CHO-RMc4luc cells [2]; DEX 50 uM): 135 RLU
% of S/B, Patient #18 Serum (CHO-RMc4luc cells [2]; DEX 100 uM): 140%
RLU, Patient #18 Serum, Average (CHO-RMc4luc cells [2]; DEX 100 uM): 3492 RLU
RLU, Reference Serum, Avg (CHO-RMc4luc cells [2]; DEX 100 uM): 112 RLU
S/B, Patient #18 Serum (CHO-RMc4luc cells [2]; DEX 100 uM): 31.1
RLU, Patient #18 Serum, Test 1-3 (CHO-RMc4luc cells [2]; DEX 100 uM): 3542 RLU and 3414 RLU and 3521 RLU
RLU, Reference Serum, Avg (CHO-RMc4luc cells [2]; DEX 12. uM): 129 RLU
RLU, Reference Serum, Test 1-3 (CHO-RMc4luc cells [2]; DEX 12. uM): 129 RLU and 141 RLU
Δ (positive - normal) RLU (CHO-RMc4luc cells [1]; [8]): 9375 RLU
Δ (positive - normal) SRR % s (CHO-RMc4luc cells [1]; [8]): 282%

C[C@]12CCC(=O)C=C1CC[C@@H]1[C@@H]2C(=O)C[C@@]2(C)[C@H]1CC[C@]2(O)C(=O)CO [Cortisone]
signal intensity (RLU) compared to 40 μM dexamethasone (CHO-RMc4luc cells [1]): equivalent to dexamethasone; also recorded: equal signal intensities
Δ (positive - normal) RLU (CHO-RMc4luc cells [1]; [3]): 10494 RLU
Δ (positive - normal) SRR % s (CHO-RMc4luc cells [1]; [3]): 169%
Δ (positive - normal) RLU (CHO-RMc4luc cells [1]; [4]): 9474 RLU
Δ (positive - normal) SRR % s (CHO-RMc4luc cells [1]; [4]): 151%
Δ (positive - normal) RLU (CHO-RMc4luc cells [1]; [5]): 9847 RLU
Δ (positive - normal) SRR % s (CHO-RMc4luc cells [1]; [5]): 151%
Δ (positive - normal) RLU (CHO-RMc4luc cells [1]; [6]): 8738 RLU
Δ (positive - normal) SRR % s (CHO-RMc4luc cells [1]; [6]): 162%
Δ (positive - normal) RLU (CHO-RMc4luc cells [1]; [7]): 8106 RLU
Δ (positive - normal) SRR % s (CHO-RMc4luc cells [1]; [7]): 176%
